{
  "source": "paper PMC8329300",
  "about": "“X-ray crystallography reveals molecular recognition mechanism for sugar binding in a melibiose transporter MelB” (Communications Biology, 2021)",
  "key": {"MelBSt WT": {"molecular_target": "T1, MelBSt WT (Salmonella typhimurium, UniProt P30878)", "T1 construct": "Cys scanning mutagenesis for the full-length MelBSt; expressed in transfected cells; host or cells: E. coli DW2 (melA+, melB-, lacZ-Y-)", "test": "[3H]Melibiose transport time course with DW2 intact cells expressing MelBSt WT", "format": "cell-based", "settings": "0.4 mM [3H]melibiose", "description": "(§1) Fig. 1 Functional characterizations. a [^3H] Melibiose transport time course with intact cells. E. coli DW2 strain (melB^−, lacZ^−Y^−) expressed with the WT, D59C, or D59A MelBSt mutants were subjected to [^3H]melibiose active transport assay at 0.4 mM and 10 mCi/mmol in the presence of 20 mM or 100 mM NaCl or LiCl by a fast filtration method. Inset, melibiose fermentation assay. Transformants with DW2 strain were plated on MacConkey agar plates containing 30 mM melibiose as the sole carbohydrate source and pH sensor neutral red, and incubated at 37 °C for 16–18 h before imaging. Number of tests = 3, from different batch of cells or duplicate measurements from same batch of sample. b Ligand binding by Trp→dansyl galactoside (D^2G) FRET assay. Purified proteins at 1 μM concentration in 20 mM Tris-HCl, pH 7.5, 100 mM CholCl, 10% glycerol, and 0.03% UDM were subjected to steady-state fluorescence measurements as described in Methods. On the time-trace, 1.8 μL of 1 mM D^2G at 10 μM was added into 180 μL of protein solutions at 1-min point, followed by supplying 10 μL of 5 mM DDMB or 5 mM α-NPG to displace the bound D^2G. For testing Na^+ or Li^+ binding, they are added into the solution before displacement with the second sugar. The structure of DDMB or α-NPG is shown in a chair form, and the carbon positions are labeled. Glycosidic bonds are indicated by arrows. Both are α-galactosides containing a substituent at the anomeric carbon-1. The data were from duplicate measurements.\n(§2) The overexpression of MelBSt was carried out in the E. coli DW2 strain (melA^+, melB^−, and lacZ^−Y^−) from a constitutive expression plasmid pK95ΔAH/MelBSt/CHis10[9],[28],[33]. The D59C or D59A mutant with Cys or Ala at the position 59, respectively, was constructed previously[9] or in this study by QuikChange Site-Directed Mutagenesis kit and confirmed by DNA sequencing analysis. E. coli DW2 cells containing a given plasmid were grown in Luria-Bertani (LB) broth (5 g yeast extract and 10 g tryptone per liter with 171 mM NaCl) with 100 mg/L of ampicillin in a 37 °C shaker. The overnight cultures were diluted by 5% with LB broth supplemented with 0.5% glycerol and 100 mg/L of ampicillin, and constitutive overexpression was obtained by shaking at 30 °C for another 5 h.\n(§3) E. coli DW2 cells expressing MelBSt were washed with 100 mM KPi, pH 7.5, to remove Na^+ contamination as described previously. The cell pellets were resuspended with the assay buffer (100 mM KPi, pH 7.5, 10 mM MgSO4) and adjusted to A420 of 10 (∼0.7 mg protein/ml). Using a fast filtration, transport time course at 0.4 mM melibiose (at specific activity of 10 mCi/mmol) was carried out in the absence or presence of NaCl or LiCl at 20 mM or 100 mM, respectively, and intracellular melibiose was determined as described previously."}, "MelBSt D59A": {"molecular_target": "T2, MelBSt D59A (Salmonella typhimurium, UniProt P30878, D59A)", "T2 construct": "Cys scanning mutagenesis for the full-length MelBSt; expressed in transfected cells; host or cells: E. coli DW2 (melA+, melB-, lacZ-Y-)", "T2 sequence (P30878 whole entry D59A)": "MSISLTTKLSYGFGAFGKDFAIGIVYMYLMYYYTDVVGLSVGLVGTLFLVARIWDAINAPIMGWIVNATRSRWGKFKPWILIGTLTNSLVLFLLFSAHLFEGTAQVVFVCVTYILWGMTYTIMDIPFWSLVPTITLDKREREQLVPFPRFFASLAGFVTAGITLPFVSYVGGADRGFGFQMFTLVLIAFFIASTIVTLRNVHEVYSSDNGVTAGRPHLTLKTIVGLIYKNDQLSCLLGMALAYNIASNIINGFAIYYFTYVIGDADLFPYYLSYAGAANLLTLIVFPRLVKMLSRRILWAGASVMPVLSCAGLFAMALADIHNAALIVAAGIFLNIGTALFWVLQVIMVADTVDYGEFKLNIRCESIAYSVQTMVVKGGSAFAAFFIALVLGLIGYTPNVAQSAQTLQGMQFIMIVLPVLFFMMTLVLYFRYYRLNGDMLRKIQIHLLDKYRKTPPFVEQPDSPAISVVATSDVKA", "test": "[3H]Melibiose transport time course with DW2 intact cells expressing MelBSt D59A", "format": "cell-based", "settings": "0.4 mM [3H]melibiose", "description": "as §1, §2, §3"}},
  "data": [
    {"molecule": "OC[C@H]1O[C@H](OCC2O[C@@H](O)[C@H](O)[C@@H](O)[C@@H]2O)[C@H](O)[C@@H](O)[C@H]1O", "note": "(stereo partly drawn) [Melibiose]", "values": [
      {"measurement": "Melibiose transport", "setting": "MelBSt WT; H+, Time 0.08333", "result": 4.65},
      {"measurement": "Melibiose transport", "setting": "MelBSt WT; H+, Time 0.16667", "result": 11.5871},
      {"measurement": "Melibiose transport", "setting": "MelBSt WT; H+, Time 0.5", "result": 17.8175},
      {"measurement": "Melibiose transport", "setting": "MelBSt WT; H+, Time 1", "result": 26.1053},
      {"measurement": "Melibiose transport", "setting": "MelBSt WT; H+, Time 2", "result": 32.522},
      {"measurement": "Melibiose transport", "setting": "MelBSt WT; H+, Time 5", "result": 41.2117},
      {"measurement": "Melibiose transport", "setting": "MelBSt WT; H+, Time 10", "result": 51.4376},
      {"measurement": "Melibiose transport", "setting": "MelBSt WT; H+, Time 30", "result": 52.9751},
      {"measurement": "Melibiose transport", "setting": "MelBSt WT; Li+, 20 mM, Time 0.08333", "result": 5.082},
      {"measurement": "Melibiose transport", "setting": "MelBSt WT; Li+, 20 mM, Time 0.16667", "result": 9.37},
      {"measurement": "Melibiose transport", "setting": "MelBSt WT; Li+, 20 mM, Time 0.5", "result": 20.2553},
      {"measurement": "Melibiose transport", "setting": "MelBSt WT; Li+, 20 mM, Time 1", "result": 29.5856},
      {"measurement": "Melibiose transport", "setting": "MelBSt WT; Li+, 20 mM, Time 2", "result": 49.8958},
      {"measurement": "Melibiose transport", "setting": "MelBSt WT; Li+, 20 mM, Time 5", "result": 106.047},
      {"measurement": "Melibiose transport", "setting": "MelBSt WT; Li+, 20 mM, Time 10", "result": 190.811},
      {"measurement": "Melibiose transport", "setting": "MelBSt WT; Li+, 20 mM, Time 30", "result": 313.001},
      {"measurement": "Melibiose transport", "setting": "MelBSt WT; Li+, 100 mM, Time 0.08333", "result": 13.3342},
      {"measurement": "Melibiose transport", "setting": "MelBSt WT; Li+, 100 mM, Time 0.16667", "result": 15.8108},
      {"measurement": "Melibiose transport", "setting": "MelBSt WT; Li+, 100 mM, Time 0.5", "result": 32.509},
      {"measurement": "Melibiose transport", "setting": "MelBSt WT; Li+, 100 mM, Time 1", "result": 62.5704},
      {"measurement": "Melibiose transport", "setting": "MelBSt WT; Li+, 100 mM, Time 2", "result": 85.8864},
      {"measurement": "Melibiose transport", "setting": "MelBSt WT; Li+, 100 mM, Time 5", "result": 142.587},
      {"measurement": "Melibiose transport", "setting": "MelBSt WT; Li+, 100 mM, Time 10", "result": 325.223},
      {"measurement": "Melibiose transport", "setting": "MelBSt WT; Li+, 100 mM, Time 30", "result": 437.5},
      {"measurement": "Melibiose transport", "setting": "MelBSt WT; Na+, 20 mM, Time 0.08333", "result": 6.156},
      {"measurement": "Melibiose transport", "setting": "MelBSt WT; Na+, 20 mM, Time 0.16667", "result": 13.1731},
      {"measurement": "Melibiose transport", "setting": "MelBSt WT; Na+, 20 mM, Time 0.5", "result": 23.5532},
      {"measurement": "Melibiose transport", "setting": "MelBSt WT; Na+, 20 mM, Time 1", "result": 28.6147},
      {"measurement": "Melibiose transport", "setting": "MelBSt WT; Na+, 20 mM, Time 2", "result": 46.7036},
      {"measurement": "Melibiose transport", "setting": "MelBSt WT; Na+, 20 mM, Time 5", "result": 103.453},
      {"measurement": "Melibiose transport", "setting": "MelBSt WT; Na+, 20 mM, Time 10", "result": 203.925},
      {"measurement": "Melibiose transport", "setting": "MelBSt WT; Na+, 20 mM, Time 30", "result": 320.843},
      {"measurement": "Melibiose transport", "setting": "MelBSt WT; Na+, 100 mM, Time 0.08333", "result": 7.0516},
      {"measurement": "Melibiose transport", "setting": "MelBSt WT; Na+, 100 mM, Time 0.16667", "result": 7.9788},
      {"measurement": "Melibiose transport", "setting": "MelBSt WT; Na+, 100 mM, Time 0.5", "result": 20.0324},
      {"measurement": "Melibiose transport", "setting": "MelBSt WT; Na+, 100 mM, Time 1", "result": 44.6398},
      {"measurement": "Melibiose transport", "setting": "MelBSt WT; Na+, 100 mM, Time 2", "result": 78.2935},
      {"measurement": "Melibiose transport", "setting": "MelBSt WT; Na+, 100 mM, Time 5", "result": 118.81},
      {"measurement": "Melibiose transport", "setting": "MelBSt WT; Na+, 100 mM, Time 10", "result": 202.959},
      {"measurement": "Melibiose transport", "setting": "MelBSt WT; Na+, 100 mM, Time 30", "result": 340.508},
      {"measurement": "Melibiose transport", "setting": "MelBSt D59A; H+, Time 0.17", "result": 9.09},
      {"measurement": "Melibiose transport", "setting": "MelBSt D59A; H+, Time 0.50", "result": 8.49},
      {"measurement": "Melibiose transport", "setting": "MelBSt D59A; H+, Time 1.00", "result": 2.84},
      {"measurement": "Melibiose transport", "setting": "MelBSt D59A; H+, Time 2.00", "result": 1.86},
      {"measurement": "Melibiose transport", "setting": "MelBSt D59A; H+, Time 5.00", "result": 1.70},
      {"measurement": "Melibiose transport", "setting": "MelBSt D59A; H+, Time 10.00", "result": 1.53},
      {"measurement": "Melibiose transport", "setting": "MelBSt D59A; H+, Time 30.00", "result": 1.58},
      {"measurement": "Melibiose transport", "setting": "MelBSt D59A; Li+, 20 mM, Time 0.17", "result": 0.82},
      {"measurement": "Melibiose transport", "setting": "MelBSt D59A; Li+, 20 mM, Time 0.50", "result": 1.81},
      {"measurement": "Melibiose transport", "setting": "MelBSt D59A; Li+, 20 mM, Time 1.00", "result": 0.66},
      {"measurement": "Melibiose transport", "setting": "MelBSt D59A; Li+, 20 mM, Time 2.00", "result": 4.29},
      {"measurement": "Melibiose transport", "setting": "MelBSt D59A; Li+, 20 mM, Time 5.00", "result": 3.59},
      {"measurement": "Melibiose transport", "setting": "MelBSt D59A; Li+, 20 mM, Time 10.00", "result": 1.72},
      {"measurement": "Melibiose transport", "setting": "MelBSt D59A; Li+, 20 mM, Time 30.00", "result": 4.17},
      {"measurement": "Melibiose transport", "setting": "MelBSt D59A; Na+, 20 mM, Time 0.17", "result": 4.09},
      {"measurement": "Melibiose transport", "setting": "MelBSt D59A; Na+, 20 mM, Time 0.50", "result": 2.70},
      {"measurement": "Melibiose transport", "setting": "MelBSt D59A; Na+, 20 mM, Time 1.00", "result": 2.54},
      {"measurement": "Melibiose transport", "setting": "MelBSt D59A; Na+, 20 mM, Time 2.00", "result": 5.43},
      {"measurement": "Melibiose transport", "setting": "MelBSt D59A; Na+, 20 mM, Time 5.00", "result": 1.63},
      {"measurement": "Melibiose transport", "setting": "MelBSt D59A; Na+, 20 mM, Time 10.00", "result": 1.16}
    ]}
  ]
}
